Laboratory results from patent US9605003B2, “Heterocyclic compounds and uses thereof” (Infinity Pharmaceuticals, Inc., priority 2011, dated 2017).

Tests used:
PI3Kβ = biological target: T1, PI3Kβ (Homo sapiens, UniProt P42338); test: PI3 Kinase HTRF assay, PI3Kβ; type: biochemical; conditions: Between 1 μM and 10 μM; read-out: PI3K β IC50
T1 construct: purchased Millipore Corporation 14-603-K
Excerpt: (§1) A PI3-Kinase HTRF® assay kit (cat No. 33-016) purchased from Millipore Corporation was used to screen compounds provided herein. This assay used specific, high affinity binding of the GRP1 pleckstrin homology (PH) domain to PIP3, the product of a Class 1A or 1B PI3 Kinase acting on its physiological substrate PIP2. During the detection phase of the assay, a complex was generated between the GST-tagged PH domain and biotinylated short chain PIP3. The biotinylated PIP3 and the GST-tagged PH domain recruited fluorophores (Streptavidin-Allophycocyanin and Europium-labeled anti-GST respectively) to form the fluorescence resonance energy transfer (FRET) architecture, generating a stable time-resolved FRET signal. The FRET complex was disrupted in a competitive manner by non-biotinylated PIP3, a product formed in the PI3 Kinase assay.
(§2) PI3 Kinase α, β, γ and δ activity was assayed using the PI3 Kinase HTRF® assay kit (catalogue No. 33-016) purchased from Millipore Corporation. Purified recombinant PI3Kα (catalogue No. 14-602-K), PI3Kβ (catalogue No. 14-603-K), PI3Kγ (catalogue No. 14-558-K) and PI3Kδ (catalogue No. 14-604-K) were obtained from Millipore Corporation. Purified recombinant PI3K enzyme was used to catalyze the phosphorylation of phosphatidylinositol 4,5-bisphosphate (PIP2 at 10 μM) to phosphatidylinositol 3,4,5-trisphosphate (PIP3) in the presence of 10 μM ATP. The assay was carried out in 384-well format and detected using a Perkin Elmer EnVision Xcite Multilabel Reader. Emission ratios were converted into percent inhibitions and imported into GraphPad Prism software. The concentration necessary to achieve inhibition of enzyme activity by 50% (IC50) was calculated using concentrations ranging from 20 μM to 0.1 nM (12-point curve). IC50 values were determined using a nonlinear regression model available in GraphPad Prism 5.

Balb/c splenic B cells = test: B cell activation and proliferation assay (Alamar Blue); type: cell-based; conditions: Mus musculus, Less than 100 nanoMolar
Description: The ability of one or more subject compounds to inhibit B cell activitation and proliferation is determined according to standard procedures known in the art. For example, an in vitro cellular proliferation assay is established that measures the metabolic activity of live cells. The assay is performed in a 96 well microtiter plate using Alamar Blue reduction. Balb/c splenic B cells are purified over a Ficoll-Paque™ PLUS gradient followed by magnetic cell separation using a MACS B cell Isolation Kit (Miletenyi). Cells are plated in 90 μl at 50,000 cells/well in B Cell Media (RPMI+10% FBS+Penn/Strep+50 μM bME+5 mM HEPES). A compound provided herein is diluted in B Cell Media and added in a 10 μl volume. Plates are incubated for 30 min at 37° C. and 5% CO2 (0.2% DMSO final concentration). A 50 μl B cell stimulation cocktail is then added containing either 10 μg/ml LPS or 5 μg/ml F(ab′)2 Donkey anti-mouse IgM plus 2 ng/ml recombinant mouse IL4 in B Cell Media. Plates are incubated for 72 hours at 37° C. and 5% CO2. A volume of 15 μL of Alamar Blue reagent is added to each well and plates are incubated for 5 hours at 37° C. and 5% CO2. Alamar Blue fluoresce is read at 560Ex/590Em, and IC50 or EC50 values are calculated using GraphPad Prism 5.

PI3Kα = biological target: T2, PI3Kα (Homo sapiens, UniProt P42336); test: PI3 Kinase HTRF assay, PI3Kα; type: biochemical; conditions: Between 1 μM and 10 μM; read-out: PI3K α IC50
T2 construct: purchased Millipore Corporation 14-602-K
Excerpt: as §1, §2

T1 sequence (P42338 whole entry): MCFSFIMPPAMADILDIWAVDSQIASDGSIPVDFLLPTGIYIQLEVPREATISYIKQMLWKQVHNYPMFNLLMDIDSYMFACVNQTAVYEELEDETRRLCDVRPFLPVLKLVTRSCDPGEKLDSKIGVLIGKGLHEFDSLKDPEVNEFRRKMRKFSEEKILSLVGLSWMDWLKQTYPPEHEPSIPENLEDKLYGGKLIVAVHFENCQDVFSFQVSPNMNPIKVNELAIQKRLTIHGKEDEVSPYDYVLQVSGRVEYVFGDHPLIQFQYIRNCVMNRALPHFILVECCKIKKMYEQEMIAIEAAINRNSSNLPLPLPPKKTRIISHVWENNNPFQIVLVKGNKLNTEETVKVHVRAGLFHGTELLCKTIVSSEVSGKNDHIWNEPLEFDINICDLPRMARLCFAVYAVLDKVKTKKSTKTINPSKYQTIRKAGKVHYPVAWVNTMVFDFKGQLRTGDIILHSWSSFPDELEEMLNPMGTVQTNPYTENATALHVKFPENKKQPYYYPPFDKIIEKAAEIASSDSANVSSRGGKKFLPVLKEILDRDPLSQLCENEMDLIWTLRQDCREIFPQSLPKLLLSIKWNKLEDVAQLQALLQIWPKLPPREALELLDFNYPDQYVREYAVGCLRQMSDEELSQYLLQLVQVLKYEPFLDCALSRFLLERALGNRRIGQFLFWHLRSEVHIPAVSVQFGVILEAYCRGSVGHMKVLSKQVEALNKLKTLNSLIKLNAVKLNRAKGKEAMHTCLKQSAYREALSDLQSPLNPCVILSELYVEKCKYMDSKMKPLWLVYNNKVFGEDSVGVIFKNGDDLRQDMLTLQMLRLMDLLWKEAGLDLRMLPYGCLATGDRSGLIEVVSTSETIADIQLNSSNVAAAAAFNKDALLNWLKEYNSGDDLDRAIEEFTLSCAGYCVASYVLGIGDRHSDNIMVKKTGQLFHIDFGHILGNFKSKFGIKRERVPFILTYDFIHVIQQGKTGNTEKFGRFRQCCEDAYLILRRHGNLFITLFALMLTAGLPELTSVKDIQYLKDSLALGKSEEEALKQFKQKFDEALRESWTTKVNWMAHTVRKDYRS
T1 sequence (P27986 2-724 partner limits assumed): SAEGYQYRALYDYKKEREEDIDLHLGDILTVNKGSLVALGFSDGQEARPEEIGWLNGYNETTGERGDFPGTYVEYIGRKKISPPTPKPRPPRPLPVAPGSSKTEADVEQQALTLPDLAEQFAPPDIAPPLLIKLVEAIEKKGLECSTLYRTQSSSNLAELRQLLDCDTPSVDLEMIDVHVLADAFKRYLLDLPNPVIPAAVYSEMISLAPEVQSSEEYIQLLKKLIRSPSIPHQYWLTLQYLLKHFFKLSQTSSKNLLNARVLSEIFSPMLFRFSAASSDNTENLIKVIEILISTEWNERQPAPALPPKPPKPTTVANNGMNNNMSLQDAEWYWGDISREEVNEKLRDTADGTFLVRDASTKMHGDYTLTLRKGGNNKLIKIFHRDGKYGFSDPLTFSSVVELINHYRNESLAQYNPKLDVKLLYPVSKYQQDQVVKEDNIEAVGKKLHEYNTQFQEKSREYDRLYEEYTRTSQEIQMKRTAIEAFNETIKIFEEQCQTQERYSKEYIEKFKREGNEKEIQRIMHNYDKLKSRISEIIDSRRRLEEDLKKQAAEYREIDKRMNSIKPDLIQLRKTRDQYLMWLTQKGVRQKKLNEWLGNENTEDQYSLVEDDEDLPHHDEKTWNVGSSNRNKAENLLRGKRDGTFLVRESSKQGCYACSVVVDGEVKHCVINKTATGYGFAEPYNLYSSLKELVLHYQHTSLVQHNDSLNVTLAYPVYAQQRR
T2 sequence (P42336 whole entry): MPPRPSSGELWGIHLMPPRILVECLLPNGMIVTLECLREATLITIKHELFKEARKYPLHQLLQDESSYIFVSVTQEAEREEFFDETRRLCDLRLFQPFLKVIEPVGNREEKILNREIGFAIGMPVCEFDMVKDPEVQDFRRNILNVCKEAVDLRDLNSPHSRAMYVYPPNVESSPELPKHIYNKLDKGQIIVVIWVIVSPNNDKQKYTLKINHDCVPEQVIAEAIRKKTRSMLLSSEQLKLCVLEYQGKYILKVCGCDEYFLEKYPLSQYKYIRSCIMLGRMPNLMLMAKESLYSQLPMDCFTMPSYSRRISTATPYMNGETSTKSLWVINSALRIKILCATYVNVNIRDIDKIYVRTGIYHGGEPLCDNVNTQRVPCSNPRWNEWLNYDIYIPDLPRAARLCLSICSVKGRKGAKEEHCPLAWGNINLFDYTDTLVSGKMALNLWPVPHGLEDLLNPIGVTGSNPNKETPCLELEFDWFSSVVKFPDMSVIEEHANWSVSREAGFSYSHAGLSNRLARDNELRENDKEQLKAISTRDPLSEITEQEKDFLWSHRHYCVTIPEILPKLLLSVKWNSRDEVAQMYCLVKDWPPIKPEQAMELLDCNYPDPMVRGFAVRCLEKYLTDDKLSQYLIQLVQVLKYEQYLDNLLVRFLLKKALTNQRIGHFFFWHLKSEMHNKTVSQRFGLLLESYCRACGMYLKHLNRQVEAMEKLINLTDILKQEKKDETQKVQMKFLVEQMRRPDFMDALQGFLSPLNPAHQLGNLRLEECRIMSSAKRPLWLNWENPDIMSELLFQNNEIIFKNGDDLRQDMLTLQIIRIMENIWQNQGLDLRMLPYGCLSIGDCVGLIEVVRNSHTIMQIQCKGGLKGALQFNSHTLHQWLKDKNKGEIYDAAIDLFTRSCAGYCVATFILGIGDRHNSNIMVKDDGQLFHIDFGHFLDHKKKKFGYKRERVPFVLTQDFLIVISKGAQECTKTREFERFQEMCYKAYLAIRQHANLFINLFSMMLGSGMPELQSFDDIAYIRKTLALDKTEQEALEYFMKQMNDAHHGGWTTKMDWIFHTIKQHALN
T2 sequence (P27986 whole entry partner): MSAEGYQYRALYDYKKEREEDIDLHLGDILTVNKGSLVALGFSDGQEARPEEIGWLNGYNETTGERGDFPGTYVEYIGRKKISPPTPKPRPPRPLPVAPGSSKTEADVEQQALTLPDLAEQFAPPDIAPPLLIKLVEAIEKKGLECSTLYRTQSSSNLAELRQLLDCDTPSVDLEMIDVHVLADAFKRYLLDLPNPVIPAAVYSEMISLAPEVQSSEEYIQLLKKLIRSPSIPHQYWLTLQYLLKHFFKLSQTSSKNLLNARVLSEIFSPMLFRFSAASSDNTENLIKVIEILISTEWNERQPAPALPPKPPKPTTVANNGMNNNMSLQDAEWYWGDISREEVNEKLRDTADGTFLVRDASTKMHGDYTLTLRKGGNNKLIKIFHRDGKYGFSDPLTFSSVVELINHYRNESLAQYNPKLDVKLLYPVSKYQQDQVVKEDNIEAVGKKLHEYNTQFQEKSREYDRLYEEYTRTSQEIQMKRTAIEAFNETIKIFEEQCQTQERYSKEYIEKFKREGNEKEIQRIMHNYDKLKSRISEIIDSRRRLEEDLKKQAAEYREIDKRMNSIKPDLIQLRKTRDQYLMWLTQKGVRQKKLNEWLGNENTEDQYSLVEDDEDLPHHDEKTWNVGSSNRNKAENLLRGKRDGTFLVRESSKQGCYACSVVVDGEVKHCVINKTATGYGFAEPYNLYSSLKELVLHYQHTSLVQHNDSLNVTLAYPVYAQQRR

IC50 (PI3Kβ) [µM]	IC50 (PI3Kα) [µM]	SMILES	EC50 (Balb/c splenic B cells) [µM]
1 to 10		Cc1cc(-c2cccc3cc([C@H](C)Nc4ncnc5scnc45)n(-c4ccccc4)c(=O)c23)ccn1 [Compound 27]	
1 to 10		COc1cc(-c2cccc3cc([C@H](C)Nc4ncnc5scnc45)n(-c4ccccc4)c(=O)c23)ccn1 [Compound 52]	< 0.1
		C[C@H](Nc1ncnc2scnc12)c1cc2cccc(-c3cnn(C)c3)c2c(=O)n1C1CC1 [Compound 9]	< 0.1
		C[C@H](Nc1ncnc2scnc12)c1cc2cccc(Cl)c2c(=O)n1C1CC1 [Compound 8]	< 0.1
1 to 10		C[C@H](Nc1ncnc2scnc12)c1cc2cccc(Cl)c2c(=O)n1-c1cccc(C(F)(F)F)c1 [Compound 73]	
1 to 10		Cc1nn(C)cc1-c1cccc2cc([C@H](C)Nc3ncnc4scnc34)n(-c3ccccc3)c(=O)c12 [Compound 42]	
1 to 10		C[C@H](Nc1ncnc2scnc12)c1cc2cccc(-c3ccncc3)c2c(=O)n1-c1ccccc1 [Compound 33]	
		C[C@H](Nc1ncnc2scnc12)c1cc2cccc(-c3cnc4ccccc4c3)c2c(=O)n1-c1ccccc1 [Compound 41]	< 0.1
1 to 10		C[C@H](Nc1ncnc2scnc12)c1cc2cccc(-c3ccc(=O)n(C)c3)c2c(=O)n1-c1ccccc1 [Compound 51]	< 0.1
	1 to 10	CC(C)n1cc(-c2cccc3cc([C@H](C)Nc4ncnc5scnc45)n(-c4ccccc4)c(=O)c23)cn1 [Compound 23]	
		C[C@H](Nc1ncnc2scnc12)c1cc2cccc(-c3ccc(N)nc3)c2c(=O)n1C1CC1 [Compound 63]	< 0.1
	1 to 10	C[C@H](Nc1ncnc2scnc12)c1cc2scc(Cl)c2c(=O)n1-c1ccccc1 [Compound 15]	
1 to 10		COc1ncc(-c2cccc3cc([C@H](C)Nc4ncnc5scnc45)n(-c4ccccc4)c(=O)c23)s1 [Compound 93]	< 0.1
1 to 10		C[C@H](Nc1ncnc2scnc12)c1cc2cccc(-c3ccoc3)c2c(=O)n1-c1ccccc1 [Compound 34]	
1 to 10		C[C@H](Nc1ncnc2scnc12)c1cc2cccc(-c3cnc4ccoc4c3)c2c(=O)n1-c1ccccc1 [Compound 55]	< 0.1
		C[C@H](Nc1ncnc2scnc12)c1cc2cccc(Cl)c2c(=O)n1-c1ccccc1 [Compound 2]	< 0.1
		C[C@H](Nc1ncnc2scnc12)c1cc2cccc(-c3cnc4nccnc4c3)c2c(=O)n1-c1ccccc1 [Compound 57]	< 0.1
		C[C@H](Nc1ncnc2scnc12)c1cc2cccc(-c3ccc(C(F)(F)F)nc3)c2c(=O)n1-c1ccccc1 [Compound 13]	< 0.1
		COc1cncc(-c2cccc3cc([C@H](C)Nc4ncnc5scnc45)n(-c4ccccc4)c(=O)c23)c1 [Compound 39]	< 0.1
		COc1cncc(-c2cccc3cc([C@H](C)Nc4ncnc5scnc45)n(C4CC4)c(=O)c23)c1 [Compound 64]	< 0.1
1 to 10		C[C@H](Nc1ncnc2scnc12)c1cc2cccc(-c3ccc(N)nc3)c2c(=O)n1-c1ccccc1 [Compound 46]	< 0.1
1 to 10		COc1cccc(-c2cccc3cc([C@H](C)Nc4ncnc5scnc45)n(-c4ccccc4)c(=O)c23)c1 [Compound 31]	
1 to 10		C[C@H](Nc1ncnc2scnc12)c1cc2cccc(-c3cnc(N)nc3)c2c(=O)n1-c1ccccc1 [Compound 50]	< 0.1
1 to 10		C[C@H](Nc1ncnc2scnc12)c1cc2cccc(-c3cccc(N(C)C)c3)c2c(=O)n1-c1ccccc1 [Compound 45]	< 0.1
		C[C@H](Nc1ncnc2scnc12)c1cc2cccc(Cl)c2c(=O)n1CCN1CCCC1 [Compound 68]	< 0.1
1 to 10		Cc1cncc(-c2cccc3cc([C@H](C)Nc4ncnc5scnc45)n(-c4ccccc4)c(=O)c23)c1 [Compound 20]	
1 to 10		C[C@H](Nc1ncnc2scnc12)c1cc2cccc(-c3cnc4c(c3)CCCO4)c2c(=O)n1-c1ccccc1 [Compound 54]	< 0.1
1 to 10		Cc1ccnc2cc(C(C)Nc3ncnc4scnc34)n(-c3ccccc3)c(=O)c12 (stereo not drawn) [Compound 70]	
